Tests used:
[1] = system: CRE-dependent transactivation; test: CRE-dependent transactivation in N2a cells; type: cell-based, mouse; design: dose or concentration left out as unconfirmed; settings: 16 hours, vs DMSO, FIG. 10A
Procedure: (§1) Transactivation assays. CRE-dependent transactivation was measured in the absence or presence of overexpression of PKA (pFC-PKA, Stratagene) by cotransfection with CRE-luciferase reporter plasmid (pCRE-Luc, Stratagene) and pSV-β-galactosidase vector (Promega) to evaluate transfection efficiency. CHOP-mediated transactivation was measured by cotransfection with the Gal4-fusion trans-activator plasmids (pFA-CHOP and pFR-Luc, Stratagene). 30 hours after transfection, luciferase and β-galactosidase activities were determined following manufacturer's instructions using a TD-20/20 luminometer (Turner Designs) and a DU-64 spectrophotometer (Beckman). Values were normalized to β-galactosidase activity and protein concentration.
N2a cells co-transfected with plasmids pCRE-luc, pFC-PKA, and pSV-β-galactosidase were incubated for 16 hours with DMSO or with L-685,458 ([…]) and CRE-dependent transactivation was measured as described above. […] Total RNA isolated from N2a cells treated either with DMSO or with L-685,458, was analyzed by semiquantitative RT-PCR using specific primers for c-fos and gapdh. The graph in FIG. 10B represents the relative abundance of c-fos-specific PCR products following quantitation of the mRNA signals shown in the upper panel. […]

[2] = system: N-cadherin; test: In vitro ε-cleavage assay, membranes from mouse brain neuronal cultures; type: biochemical; settings: PS1+/− neurons, L-685,458 (0.5 μM)
Procedure: Primary, neuronal cultures. Mixed hippocampal and cortical neuronal cultures were prepared from E18 mouse or rat brains as described by Banker and Goslin (1991) Culturing Nerves Cells, London, MIT Press. Neurons were maintained 10 days in vitro in glial conditioned MEM containing 2% glucose and N2 supplements as described by Bottenstein and Sato (1979) Proc. Natl. Acad. Sci. USA 76: 514-517, and then were stimulated for 15 minutes with Mg2+-free Hanks' balanced salt solution (HBSS, Sigma) containing KCl (50 mM), L-Glutamate ([…]) or NMDA ([…]). D-APV ([…]) was applied 15 minutes before stimulation.
(§2) In vitro γ-secretase-like ε-cleavage assay. Cells were washed in PBS, resuspended in 1 ml of 4° C. hypotonic buffer (10 mM MOPS, pH 7.0, 10 mM KCl) and homogenized on ice. A post-nuclear supernatant was prepared by centrifugation at 1000×g for 15 minutes at 4° C. Crude membranes were isolated from the post-nuclear supernatant by centrifugation at 16,000×g for 40 minutes at 4° C. The membranes were then resuspended in […] of assay buffer (150 mM sodium citrate, pH 6.4, 1× Complete protease inhibitor cocktail), and incubated at 37° C. for 2 hours. Samples were either analyzed directly by WB or separated into pellet (P100) and supernatant (S100) fractions by ultracentrifugation for 1 hour at 100,000×g at 4° C. The S100 and P100 fractions were then analyzed by WB.

[3] = system: CRE-dependent transactivation; test: CRE-dependent luciferase activity in HEK293 cultures stably transfected with WT-PS1; type: cell-based, human; settings: presence of L-685,458, FIG. 9B
Procedure: as §1
HEK293 cultures stably transfected either with vector or WT-PS1 were co-transfected with pFC-PKA, pCRE-Luc, and pSV-β-galactosidase in the presence or absence of L-685,458 and then processed for CRE-dependent luciferase activity. Data in FIGS. 9A and B are the mean+/−s.e. of 4 experiments normalized to β-galactosidase activity and protein concentration. *, P<0.05; ***, P<0.001 (Student's t test).

[4] = system: N-cadherin; test: In vitro ε-cleavage assay, membranes from embryonic fibroblast cultures (WT / PS1 P264L knock-in study); type: biochemical, mouse; settings: FIG. 13A lanes 1 and 2
Procedure: as §2
To investigate the consequences of FAD mutations in a physiologically relevant system in the absence of PS1 overexpression, the ε-cleavage of N-cadherin was examined in two independent embryonic fibroblast clones derived from a gene-targeted (knock-in) mouse homozygous for the human PS1 FAD mutation P264L (Siman et al. (2000) J. Neurosci. 20:8717-8726). Expression of the knock-in mutant PS1 allele is under the control of the endogenous PS1 gene. These models are distinct from overexpressing transgenic models because the mutant gene is expressed at normal levels, similar to those observed in WT models (FIG. 13, panel d). […]

[5] = system: CRE-dependent transactivation; test: CRE-dependent transactivation (luciferase) in L cells; type: cell-based; settings: L cells transfected with increasing amount of pN-Cad/CTF2, FIG. 9A
Procedure: as §1
Stimulation of synaptic NMDA receptor leads to phosphorylation of transcription factor CREB that then recruits transcription co-activator CBP, a process ultimately leading to activation of CREB-mediated gene expression (Impey and Goodman (2001) Sci STKE, PE1). […] CRE-dependent transactivation was measured in the absence (−) or presence (+) of […] PKA (pFC-PKA) using CRE-luciferase reporter plasmid (pCRE-Luc) and pSV-β-galactosidase vector. CHOP-mediated transactivation was measured by […] with the Gal4-fusion trans-activator plasmids (pFA-CHOP and pFR-Luc) and pSV-β-galactosidase vector. […]

Row | decrease of CRE-dependent transactivation caused by PS1 overexpression [3] | Molecule | CRE-dependent transactivation [1] | N-Cad/CTF2 peptide [2] | production of N-Cad/CTF2 [4] | constitutive and PKA-stimulated CRE-dependent transactivation [5]
1 | reversed | CC(C)C[C@H](NC(=O)[C@H](Cc1ccccc1)C[C@@H](O)[C@H](Cc1ccccc1)NC(=O)OC(C)(C)C)C(=O)N[C@@H](Cc1ccccc1)C(N)=O [L-685,458] | increased | inhibited | sensitive | 
2 |  | N-Cad/CTF2: chicken cytoplasmic domain of N-cadherin (N-Cad/CTF2) inserted into vector pECE, expressed in L cells (protein) KRRDKERQAKQLLIDPEDDVRDNILKYDEEGGGEEDQDYDLSQLQQPDTVEPDAIKPVGIRRLDERPIHAEPQYPVRSAAPHPGDIGDFINEGLKAADNDPTAPPYDSLLVFDYEGSGSTAGSLSSLNSSSSGGEQDYDYLNDWGPRFKKLADMYGGGDD |  |  |  | inhibits both constitutive and PKA-stimulated CRE-dependent transactivation in a dose-dependent manner

— patent publication US7884067B2, “Peptides derived from cadherin and methods of use thereof” (Mount Sinai School of Medicine of New York University, priority 2001, dated 2011)
